Data from patent US20250332139A1, “PS[…] AND THEIR USE FOR TREATING […] AND NE[…] DISORDERS” (Transcend Therapeutics, Inc., priority 2021, published 2025).
Like-named read-outs stand apart in the source and are kept apart here.

Key:
C57BL/6J mice = details: MDMA 7.5 mg/kg 30 minutes prior to extinction training (Young 2015); cited from earlier work
[1] = system: myelin basic protein (MBP) in the amygdala; test: Immunohistochemistry of myelin basic protein; type: in vivo, rat; details: 10 mg/kg IP, single dose, 24 h
Procedure: Immunohistochemistry: The in-life portion of the study was conducted at WuXi Apptec (Cranbury, NJ). Sectioning and staining of brains took place at Neuroscience Associates (NSA, Knoxville, TN). […] Brains were post-fixed in PFA before shipment to NSA for processing and staining. Hemisected brains were mounted, sectioned and stained using standard protocols with myelin-basic protein primary antibody (MBP SMI-99, 1:5000, Biolegend, San Diego, CA) and anti-mouse biotinylated secondary antibody (BA-2001, Vector Laboratories, Newark, CA). Slides were imaged using a Huron Digital Pathology TissueScope LE120 whole slide scanning system. 20× objective was used with a 0.4 μm/pixel resolution.

[2] = molecular target: norepinephrine transporter (NET) (Rattus norvegicus, UniProt Q63380); test: Competitive radioligand binding, [3H]nisoxetine, rat brain lysates
Procedure: (§1) Radioligands used were: [^3H] Citalopram (PerkinElmer NET1039250UC); [^3H] Nisoxetine (PerkinElmer NET1084250UC); [^3H] WIN35428 (PerkinElmer NET1033250UC). […] Rat brains were dissected and tissue was homogenized in cold lysis buffer, centrifged at 100×g for 2 min and the supernatant was placed in a fresh tube. Supernatant was centrifuged at 13,000×g for 10 min at 4° C. to re-pellet the cell lysate. The pellet was resuspended in fresh wash buffer (50 mM Tris-HCl; 5 mM MgCl2; 5 mM EDTA) and centrifuged a third time. The pellet was then resuspended in wash buffer containing 10% sucrose as a cryoprotectant, divided into aliquots (0.3 mL) and stored at −80° C. A sample of the homogenate was analyzed for protein content using the SIGMA® BCA assay. On the day of the assay, the membrane preparation was thawed, and the pellet resuspended in final assay buffer. […] To each well was added 150 μL membranes, 50 μL of non-specific compound or buffer and 50 μL radioligand solution in buffer. […] Ki was subsequently calculated using the Cheng-Prusoff equation.

[3] = molecular target: T1, Human serotonin 5HT2B receptor (Homo sapiens, UniProt P41595); test: 5HT2B competitive radioligand binding; details: ratio of Ki values
T1 construct: host or cells: receptor-expressing membranes
Procedure: Human serotonin 5HT2B receptor membrane preparations were divided into aliquots. On the day of the assay, membranes were diluted at 1:200 in incubation buffer. […] To each well was added 150 μL membrane preparation, 50 μL test compound, non-specific compound, or buffer alone, as well as 50 μL radioligand. The plate was incubated at 35° C. for 90 minutes with gentle agitation. […] For each concentration of drug, non-specific binding was subtracted from total binding to give specific binding. […] Ki was subsequently calculated using the ChengPrusoff equation.

[4] = molecular target: T2, dopamine transporter (DAT) (Rattus norvegicus, UniProt P23977); test: Competitive radioligand binding, [3H]WIN35428, rat brain lysates
T2 construct: from tissue; synaptosomes for uptake and release
Procedure: as §1

Sprague Dawley rats = details: cited from earlier work
[5] = molecular target: T3, serotonin transporter (SERT) (Rattus norvegicus, UniProt P31652); test: Competitive radioligand binding, [3H]citalopram, rat brain lysates
T3 construct: from tissue; synaptosomes for uptake and release
Procedure: as §1

T3 sequence (P31652 whole entry): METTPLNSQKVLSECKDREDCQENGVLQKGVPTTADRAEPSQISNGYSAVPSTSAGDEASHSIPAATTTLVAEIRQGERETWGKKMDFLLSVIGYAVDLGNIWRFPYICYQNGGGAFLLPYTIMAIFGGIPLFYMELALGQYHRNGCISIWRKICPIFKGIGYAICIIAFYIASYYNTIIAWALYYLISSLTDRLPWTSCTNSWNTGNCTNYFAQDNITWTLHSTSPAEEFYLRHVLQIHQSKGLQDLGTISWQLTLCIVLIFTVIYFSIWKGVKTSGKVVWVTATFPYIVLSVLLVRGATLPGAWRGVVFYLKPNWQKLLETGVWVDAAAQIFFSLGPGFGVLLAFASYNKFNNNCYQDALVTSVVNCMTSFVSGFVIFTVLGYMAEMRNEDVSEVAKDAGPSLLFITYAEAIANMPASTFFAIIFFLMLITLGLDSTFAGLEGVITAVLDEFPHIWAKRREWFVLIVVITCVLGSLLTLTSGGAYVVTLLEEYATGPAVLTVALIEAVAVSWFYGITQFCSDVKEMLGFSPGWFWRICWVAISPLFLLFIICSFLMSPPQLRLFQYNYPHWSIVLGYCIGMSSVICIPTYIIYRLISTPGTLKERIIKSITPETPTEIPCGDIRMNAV
T1 sequence (P41595 whole entry): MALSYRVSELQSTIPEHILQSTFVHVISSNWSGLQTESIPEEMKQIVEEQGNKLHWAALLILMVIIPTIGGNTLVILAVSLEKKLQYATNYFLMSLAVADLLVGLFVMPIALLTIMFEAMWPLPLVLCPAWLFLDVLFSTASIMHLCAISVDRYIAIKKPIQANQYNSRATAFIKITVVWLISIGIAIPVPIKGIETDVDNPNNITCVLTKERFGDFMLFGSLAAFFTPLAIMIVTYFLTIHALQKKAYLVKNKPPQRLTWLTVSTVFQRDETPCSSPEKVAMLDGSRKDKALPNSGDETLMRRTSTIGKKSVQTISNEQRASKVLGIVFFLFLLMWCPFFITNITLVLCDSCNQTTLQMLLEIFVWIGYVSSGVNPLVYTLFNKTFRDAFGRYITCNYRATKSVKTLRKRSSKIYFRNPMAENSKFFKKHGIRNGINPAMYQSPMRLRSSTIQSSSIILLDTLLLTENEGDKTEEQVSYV
T2 sequence (P23977 whole entry): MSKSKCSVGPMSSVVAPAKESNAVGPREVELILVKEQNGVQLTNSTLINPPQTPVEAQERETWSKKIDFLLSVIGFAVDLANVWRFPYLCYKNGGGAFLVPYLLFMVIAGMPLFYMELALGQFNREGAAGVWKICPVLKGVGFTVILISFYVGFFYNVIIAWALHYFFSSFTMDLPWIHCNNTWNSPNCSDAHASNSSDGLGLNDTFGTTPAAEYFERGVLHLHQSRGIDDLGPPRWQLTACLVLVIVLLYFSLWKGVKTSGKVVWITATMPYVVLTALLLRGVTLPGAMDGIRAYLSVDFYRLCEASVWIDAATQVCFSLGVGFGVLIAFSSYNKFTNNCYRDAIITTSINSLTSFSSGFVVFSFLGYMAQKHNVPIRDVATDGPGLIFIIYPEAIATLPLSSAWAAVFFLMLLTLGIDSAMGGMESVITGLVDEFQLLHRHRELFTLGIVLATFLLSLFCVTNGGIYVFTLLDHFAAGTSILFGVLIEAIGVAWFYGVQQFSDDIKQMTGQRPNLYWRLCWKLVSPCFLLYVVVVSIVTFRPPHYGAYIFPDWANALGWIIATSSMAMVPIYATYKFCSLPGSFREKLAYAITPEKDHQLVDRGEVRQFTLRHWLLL
Sequence of norepinephrine transporter (NET) (Q63380 1-617): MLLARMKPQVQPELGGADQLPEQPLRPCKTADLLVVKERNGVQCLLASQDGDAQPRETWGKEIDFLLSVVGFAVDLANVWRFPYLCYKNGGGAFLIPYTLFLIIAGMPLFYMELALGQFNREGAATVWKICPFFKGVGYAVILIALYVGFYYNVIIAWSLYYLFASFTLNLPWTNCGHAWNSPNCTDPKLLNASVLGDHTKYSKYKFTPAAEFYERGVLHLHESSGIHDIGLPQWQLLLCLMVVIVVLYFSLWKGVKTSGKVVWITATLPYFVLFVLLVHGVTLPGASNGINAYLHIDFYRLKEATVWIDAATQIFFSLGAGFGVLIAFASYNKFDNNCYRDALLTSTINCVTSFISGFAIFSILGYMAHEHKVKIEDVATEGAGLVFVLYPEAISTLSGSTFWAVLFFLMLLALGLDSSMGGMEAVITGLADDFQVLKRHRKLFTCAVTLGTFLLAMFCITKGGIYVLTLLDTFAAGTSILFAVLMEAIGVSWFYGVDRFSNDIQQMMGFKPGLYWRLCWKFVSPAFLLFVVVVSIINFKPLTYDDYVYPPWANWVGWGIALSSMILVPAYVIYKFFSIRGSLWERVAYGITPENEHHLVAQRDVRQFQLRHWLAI

In the case of `CNC(C)Cc1ccc2c(c1)OCO2` (racemic) [MDMA, 3,4-Methylenedioxymethamphetamine], the “reduced freezing (extinction recall) vs saline” value (C57BL/6J mice) is listed as 35%, the “MBP level in basolateral and central nuclei of the amygdala vs vehicle” value [1] is listed as “significant reduction in MBP” and the Ki [2] is listed as 790 nM. The “times greater affinity for the 5HT2B receptor compared with methylone” value [3] was 7.5 times, the Ki [4] was 5110 nM and the reduction in immobility (Sprague Dawley rats; MDMA 5 mg/kg, Flinders Sensitive Line rats (Majumder 2011)) was 45%. The reduction in immobility (Sprague Dawley rats; MDMA 5 mg/kg, Sprague Dawley rats (Majumder 2011)) was 45%, the reduction in immobility (Sprague Dawley rats; MDMA 10 mg/kg, Flinders Sensitive Line rats (Majumder 2011)) was 93% and the reduction in immobility (Sprague Dawley rats; MDMA 10 mg/kg, Sprague Dawley rats (Majumder 2011)) was 78%. The Ki [5] was 2620 nM.
